In publication PMC7714403 (JCI Insight, 2020):
Where two headings read alike, the source gives them in different places.

Assays:
Test in all cases: KiNativ, MOLM13 live cells
Format in all cases: cell-based
NEK8 = NEK8 (Homo sapiens, UniProt Q86SG6); conditions: MOLM-13; 100 nM, 2 hours; Lys2; read-out: Inhibition vs DMSO
Description: (§1) Samples were analyzed by KiNativ in situ kinase profiling by ActivX Biosciences.

NEK3 = NEK3 (Homo sapiens, UniProt P51956); conditions: MOLM-13; 100 nM, 2 hours; Activation Loop; read-out: Inhibition vs DMSO
Description: as §1

GCK = molecular target: T1, GCK (Homo sapiens, UniProt Q12851); conditions: MOLM-13; 100 nM, 2 hours; Lys2; read-out: Inhibition vs DMSO
T1 sequence (Q12851 1-820): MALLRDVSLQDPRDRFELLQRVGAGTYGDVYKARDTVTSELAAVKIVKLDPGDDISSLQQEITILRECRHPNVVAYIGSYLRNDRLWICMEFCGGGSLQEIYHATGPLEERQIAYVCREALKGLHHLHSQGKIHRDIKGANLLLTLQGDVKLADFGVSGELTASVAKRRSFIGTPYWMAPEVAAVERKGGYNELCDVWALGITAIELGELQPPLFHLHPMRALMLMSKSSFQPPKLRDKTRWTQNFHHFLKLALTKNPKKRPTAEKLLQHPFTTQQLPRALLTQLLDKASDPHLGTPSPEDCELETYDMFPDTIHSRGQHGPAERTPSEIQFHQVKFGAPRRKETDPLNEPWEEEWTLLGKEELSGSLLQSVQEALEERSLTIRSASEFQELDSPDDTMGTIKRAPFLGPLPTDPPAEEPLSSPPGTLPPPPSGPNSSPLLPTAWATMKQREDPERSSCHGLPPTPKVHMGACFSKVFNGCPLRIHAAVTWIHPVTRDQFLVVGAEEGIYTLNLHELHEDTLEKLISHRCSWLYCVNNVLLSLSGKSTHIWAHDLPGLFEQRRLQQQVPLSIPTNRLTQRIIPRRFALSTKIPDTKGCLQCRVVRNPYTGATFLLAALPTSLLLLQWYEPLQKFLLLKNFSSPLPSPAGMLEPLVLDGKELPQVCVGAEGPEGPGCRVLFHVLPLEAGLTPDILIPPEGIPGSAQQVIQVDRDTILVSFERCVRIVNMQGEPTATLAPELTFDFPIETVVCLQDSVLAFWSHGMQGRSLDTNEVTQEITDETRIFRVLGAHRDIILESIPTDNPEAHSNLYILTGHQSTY
Description: as §1

MLK4 = MLK4 (Homo sapiens, UniProt Q5TCX8); conditions: MOLM-13; 100 nM, 2 hours; Lys2; read-out: Inhibition vs DMSO
Description: as §1

PLK1 = PLK1 (Homo sapiens, UniProt P53350); conditions: MOLM-13, 2 h, 100 nM
Description: as §1

JAK1 domain2 = molecular target: T2, JAK1 domain2 (Homo sapiens, UniProt P23458); conditions: 100 nM, 2 hours
T2 construct: JAK1 domain2
T2 sequence (P23458 whole entry, the tested form may be a part): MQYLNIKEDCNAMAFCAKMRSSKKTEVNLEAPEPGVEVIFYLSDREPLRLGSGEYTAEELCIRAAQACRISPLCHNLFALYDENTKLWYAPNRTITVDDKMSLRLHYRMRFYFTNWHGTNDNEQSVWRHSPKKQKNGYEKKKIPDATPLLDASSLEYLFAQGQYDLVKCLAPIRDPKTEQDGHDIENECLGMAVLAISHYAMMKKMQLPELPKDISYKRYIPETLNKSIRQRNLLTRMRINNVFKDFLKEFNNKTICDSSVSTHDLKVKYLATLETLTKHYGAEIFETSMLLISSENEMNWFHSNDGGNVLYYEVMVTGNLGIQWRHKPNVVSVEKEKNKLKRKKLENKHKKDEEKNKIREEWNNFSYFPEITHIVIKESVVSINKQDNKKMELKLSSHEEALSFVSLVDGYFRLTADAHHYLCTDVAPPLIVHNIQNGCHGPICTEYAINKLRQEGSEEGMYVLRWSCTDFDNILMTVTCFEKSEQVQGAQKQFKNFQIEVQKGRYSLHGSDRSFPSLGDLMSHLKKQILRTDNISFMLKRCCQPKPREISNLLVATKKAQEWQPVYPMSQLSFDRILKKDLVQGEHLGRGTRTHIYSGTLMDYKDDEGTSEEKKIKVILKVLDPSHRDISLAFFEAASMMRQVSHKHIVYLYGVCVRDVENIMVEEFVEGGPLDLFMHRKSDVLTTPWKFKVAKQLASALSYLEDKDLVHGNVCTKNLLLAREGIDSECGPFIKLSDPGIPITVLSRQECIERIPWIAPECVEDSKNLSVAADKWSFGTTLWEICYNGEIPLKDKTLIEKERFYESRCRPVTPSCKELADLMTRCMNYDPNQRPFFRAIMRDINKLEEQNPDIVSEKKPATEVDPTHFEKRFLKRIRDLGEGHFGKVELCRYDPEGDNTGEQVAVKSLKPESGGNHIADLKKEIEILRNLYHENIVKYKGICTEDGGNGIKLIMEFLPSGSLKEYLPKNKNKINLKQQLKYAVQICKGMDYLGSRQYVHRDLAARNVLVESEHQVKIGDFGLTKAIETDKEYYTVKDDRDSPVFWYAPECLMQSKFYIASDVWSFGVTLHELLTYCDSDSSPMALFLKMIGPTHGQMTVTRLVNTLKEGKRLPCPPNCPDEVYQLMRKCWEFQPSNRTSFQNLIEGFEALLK
Description: as §1

SMG1 = SMG1 (Homo sapiens, UniProt Q96Q15); conditions: 100 nM, 2 hours, ATP
Chain of SMG1 (Q96Q15 whole entry): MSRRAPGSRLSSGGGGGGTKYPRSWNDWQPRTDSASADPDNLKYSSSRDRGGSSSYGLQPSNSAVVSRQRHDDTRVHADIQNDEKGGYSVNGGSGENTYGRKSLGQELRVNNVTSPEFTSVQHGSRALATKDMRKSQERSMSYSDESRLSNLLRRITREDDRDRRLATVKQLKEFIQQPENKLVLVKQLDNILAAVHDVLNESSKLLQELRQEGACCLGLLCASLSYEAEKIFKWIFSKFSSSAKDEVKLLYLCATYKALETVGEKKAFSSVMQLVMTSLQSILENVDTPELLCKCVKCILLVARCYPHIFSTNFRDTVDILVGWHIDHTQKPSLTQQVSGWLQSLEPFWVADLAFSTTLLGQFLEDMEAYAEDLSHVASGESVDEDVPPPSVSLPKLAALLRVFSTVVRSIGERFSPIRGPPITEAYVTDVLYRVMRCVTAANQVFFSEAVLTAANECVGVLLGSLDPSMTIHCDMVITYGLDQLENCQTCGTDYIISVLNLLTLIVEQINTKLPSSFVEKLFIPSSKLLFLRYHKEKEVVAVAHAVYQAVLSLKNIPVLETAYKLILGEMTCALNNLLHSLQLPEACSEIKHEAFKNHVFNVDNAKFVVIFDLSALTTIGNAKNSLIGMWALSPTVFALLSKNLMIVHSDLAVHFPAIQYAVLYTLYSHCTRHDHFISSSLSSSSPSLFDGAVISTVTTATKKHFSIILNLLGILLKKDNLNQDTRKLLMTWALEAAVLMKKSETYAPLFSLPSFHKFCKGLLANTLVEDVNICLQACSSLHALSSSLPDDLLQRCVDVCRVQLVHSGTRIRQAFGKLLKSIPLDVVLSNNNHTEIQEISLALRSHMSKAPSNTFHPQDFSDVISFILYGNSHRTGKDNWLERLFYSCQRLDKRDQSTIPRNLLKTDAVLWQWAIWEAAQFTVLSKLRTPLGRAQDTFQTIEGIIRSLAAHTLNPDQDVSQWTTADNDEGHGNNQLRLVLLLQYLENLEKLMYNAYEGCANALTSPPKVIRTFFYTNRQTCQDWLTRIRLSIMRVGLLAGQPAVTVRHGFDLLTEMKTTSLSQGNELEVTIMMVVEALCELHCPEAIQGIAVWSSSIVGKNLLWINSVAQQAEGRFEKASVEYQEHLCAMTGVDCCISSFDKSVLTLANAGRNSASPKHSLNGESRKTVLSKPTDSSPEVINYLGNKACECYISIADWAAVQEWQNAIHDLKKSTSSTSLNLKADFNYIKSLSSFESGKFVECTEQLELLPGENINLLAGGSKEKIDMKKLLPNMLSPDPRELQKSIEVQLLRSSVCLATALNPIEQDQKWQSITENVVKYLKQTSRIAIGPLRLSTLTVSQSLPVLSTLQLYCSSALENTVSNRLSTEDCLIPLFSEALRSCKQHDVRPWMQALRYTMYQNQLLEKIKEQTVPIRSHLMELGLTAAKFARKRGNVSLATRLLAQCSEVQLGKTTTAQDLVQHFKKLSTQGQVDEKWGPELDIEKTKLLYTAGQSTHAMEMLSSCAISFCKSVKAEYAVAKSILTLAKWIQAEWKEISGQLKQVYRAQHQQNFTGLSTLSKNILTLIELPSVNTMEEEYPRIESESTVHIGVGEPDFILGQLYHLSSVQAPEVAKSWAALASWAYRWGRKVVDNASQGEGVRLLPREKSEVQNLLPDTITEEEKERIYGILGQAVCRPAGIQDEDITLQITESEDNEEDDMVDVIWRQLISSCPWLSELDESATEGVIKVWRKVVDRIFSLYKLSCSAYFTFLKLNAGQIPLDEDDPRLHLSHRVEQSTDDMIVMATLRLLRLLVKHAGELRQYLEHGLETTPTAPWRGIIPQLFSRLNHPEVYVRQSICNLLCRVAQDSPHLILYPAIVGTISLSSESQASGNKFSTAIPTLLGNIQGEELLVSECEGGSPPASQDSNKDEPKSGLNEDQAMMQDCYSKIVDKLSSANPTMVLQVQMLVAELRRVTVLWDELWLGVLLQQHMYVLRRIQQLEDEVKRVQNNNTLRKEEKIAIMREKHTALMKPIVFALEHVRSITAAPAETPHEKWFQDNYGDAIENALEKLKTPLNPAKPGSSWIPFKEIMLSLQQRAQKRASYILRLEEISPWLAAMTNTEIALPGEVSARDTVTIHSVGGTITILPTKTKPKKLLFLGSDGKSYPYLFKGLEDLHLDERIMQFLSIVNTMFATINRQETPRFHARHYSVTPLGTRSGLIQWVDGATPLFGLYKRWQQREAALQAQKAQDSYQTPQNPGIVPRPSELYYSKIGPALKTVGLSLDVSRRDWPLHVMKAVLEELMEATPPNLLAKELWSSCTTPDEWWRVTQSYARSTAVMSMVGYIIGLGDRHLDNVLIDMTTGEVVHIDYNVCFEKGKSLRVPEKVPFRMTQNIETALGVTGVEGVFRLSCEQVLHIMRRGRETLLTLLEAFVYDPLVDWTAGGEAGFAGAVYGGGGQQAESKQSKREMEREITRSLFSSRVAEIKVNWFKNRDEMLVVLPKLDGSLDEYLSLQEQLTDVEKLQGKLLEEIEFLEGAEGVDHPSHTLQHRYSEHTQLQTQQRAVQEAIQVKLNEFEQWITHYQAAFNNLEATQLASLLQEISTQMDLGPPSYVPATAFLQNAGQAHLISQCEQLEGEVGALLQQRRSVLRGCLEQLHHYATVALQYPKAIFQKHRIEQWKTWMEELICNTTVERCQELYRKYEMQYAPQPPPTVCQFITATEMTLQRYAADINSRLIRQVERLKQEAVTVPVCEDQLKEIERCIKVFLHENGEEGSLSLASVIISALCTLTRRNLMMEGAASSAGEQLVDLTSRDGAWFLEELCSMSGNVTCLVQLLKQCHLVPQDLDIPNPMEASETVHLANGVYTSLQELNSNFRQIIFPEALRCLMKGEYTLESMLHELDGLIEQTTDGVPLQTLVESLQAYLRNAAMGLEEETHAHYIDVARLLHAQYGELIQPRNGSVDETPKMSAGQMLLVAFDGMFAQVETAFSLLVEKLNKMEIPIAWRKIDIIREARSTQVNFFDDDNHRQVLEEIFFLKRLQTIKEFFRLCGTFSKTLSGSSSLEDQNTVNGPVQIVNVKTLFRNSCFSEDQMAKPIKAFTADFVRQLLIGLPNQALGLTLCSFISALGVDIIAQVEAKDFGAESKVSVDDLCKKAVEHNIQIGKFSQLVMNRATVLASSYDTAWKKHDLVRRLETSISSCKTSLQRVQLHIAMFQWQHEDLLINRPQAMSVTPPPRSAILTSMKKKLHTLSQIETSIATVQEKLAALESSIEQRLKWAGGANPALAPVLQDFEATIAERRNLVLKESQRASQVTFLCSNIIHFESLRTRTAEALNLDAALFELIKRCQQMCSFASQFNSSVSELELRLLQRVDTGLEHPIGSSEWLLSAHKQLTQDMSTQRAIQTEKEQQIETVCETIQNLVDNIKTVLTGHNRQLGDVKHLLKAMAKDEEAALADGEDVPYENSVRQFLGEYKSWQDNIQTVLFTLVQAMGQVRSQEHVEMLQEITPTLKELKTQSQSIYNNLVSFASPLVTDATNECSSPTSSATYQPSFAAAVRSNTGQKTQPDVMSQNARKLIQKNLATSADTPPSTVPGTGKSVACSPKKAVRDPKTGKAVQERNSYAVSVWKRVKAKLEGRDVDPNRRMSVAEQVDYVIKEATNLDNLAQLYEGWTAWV
Description: as §1

CaMK1a = CaMK1a (Homo sapiens, UniProt Q14012); conditions: MOLM-13; 100 nM, 2 hours; Lys1; read-out: Inhibition vs DMSO
Description: as §1

NEK7 = NEK7 (Homo sapiens, UniProt Q8TDX7); conditions: MOLM-13; 100 nM, 2 hours; Lys1; read-out: Inhibition vs DMSO
Chain of NEK7 (Q8TDX7 whole entry): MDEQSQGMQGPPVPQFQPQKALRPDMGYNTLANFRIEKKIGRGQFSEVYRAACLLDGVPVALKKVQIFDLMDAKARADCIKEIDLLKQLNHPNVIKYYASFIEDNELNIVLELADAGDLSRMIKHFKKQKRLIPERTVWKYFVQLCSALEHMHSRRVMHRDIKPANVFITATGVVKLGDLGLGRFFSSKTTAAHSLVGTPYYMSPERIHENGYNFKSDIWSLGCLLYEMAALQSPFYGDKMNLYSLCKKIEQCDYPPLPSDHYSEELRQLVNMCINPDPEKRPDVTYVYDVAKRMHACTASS
Description: as §1

TAO2 = TAO2 (Homo sapiens, UniProt Q9UL54); conditions: MOLM-13; 100 nM, 2 hours; Lys2; read-out: Inhibition vs DMSO
Description: as §1

PIK3CD = PIK3CD (Homo sapiens, UniProt O00329); conditions: MOLM-13; 100 nM, 2 hours; ATP; read-out: Inhibition vs DMSO
Description: as §1

CDK10 = CDK10 (Homo sapiens, UniProt Q15131); conditions: MOLM-13; 100 nM, 2 hours; Lys2; read-out: Inhibition vs DMSO
Description: as §1

SGK3 = SGK3 (Homo sapiens, UniProt Q96BR1); conditions: MOLM-13; 100 nM, 2 hours; Lys1; read-out: Inhibition vs DMSO
Description: as §1

MAP3K5 = MAP3K5 (Homo sapiens, UniProt Q99683); conditions: MOLM-13; 100 nM, 2 hours; Lys2; read-out: Inhibition vs DMSO
Description: as §1

JAK1 domain1 = molecular target: T3, JAK1 domain1 (Homo sapiens, UniProt P23458); conditions: 100 nM, 2 hours; Activation Loop
T3 construct: JAK1 domain1
T3 sequence (P23458 whole entry, the tested form may be a part): as the sequence (P23458 whole entry, the tested form may be a part) above
Description: as §1

p70S6K = p70S6K (Homo sapiens, UniProt P23443); conditions: MOLM-13; 100 nM, 2 hours; Lys2; read-out: Inhibition vs DMSO
Description: as §1

TLK1 = molecular target: T4, TLK1 (Homo sapiens, UniProt Q9UKI8); conditions: MOLM-13; 100 nM, 2 hours; Lys2; read-out: Inhibition vs DMSO
T4 sequence (Q9UKI8 1-766): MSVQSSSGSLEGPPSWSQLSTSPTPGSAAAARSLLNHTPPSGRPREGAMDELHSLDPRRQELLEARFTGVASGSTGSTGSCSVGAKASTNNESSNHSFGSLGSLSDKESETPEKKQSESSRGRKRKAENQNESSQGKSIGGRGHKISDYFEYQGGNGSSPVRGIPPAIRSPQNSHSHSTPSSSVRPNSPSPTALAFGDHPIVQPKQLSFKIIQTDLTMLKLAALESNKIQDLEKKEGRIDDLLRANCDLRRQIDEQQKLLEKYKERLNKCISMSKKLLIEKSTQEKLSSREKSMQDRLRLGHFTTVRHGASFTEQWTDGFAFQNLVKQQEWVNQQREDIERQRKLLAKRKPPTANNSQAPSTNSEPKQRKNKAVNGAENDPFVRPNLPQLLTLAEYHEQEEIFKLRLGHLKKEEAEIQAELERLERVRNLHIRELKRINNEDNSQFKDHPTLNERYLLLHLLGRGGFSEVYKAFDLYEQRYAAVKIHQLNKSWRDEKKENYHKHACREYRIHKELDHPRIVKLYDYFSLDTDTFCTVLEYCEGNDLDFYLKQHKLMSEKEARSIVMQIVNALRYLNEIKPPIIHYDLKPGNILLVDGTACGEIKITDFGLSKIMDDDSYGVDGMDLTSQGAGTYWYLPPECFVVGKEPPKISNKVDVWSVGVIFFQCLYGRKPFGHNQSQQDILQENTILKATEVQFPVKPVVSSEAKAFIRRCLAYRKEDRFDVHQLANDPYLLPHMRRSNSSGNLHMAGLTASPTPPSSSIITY
Description: as §1

For CN1CCN(Cc2ccc(Nc3ncc(Cl)c(Nc4ccccc4S(=O)(=O)N(C)C)n3)cc2)CC1 [TP-0903], the inhibition at 0.1 µM (NEK8) was -5.3%, the inhibition at 0.1 µM (NEK3) was 14.6% and the inhibition at 0.1 µM (GCK) was 29.8%. The inhibition at 0.1 µM (MLK4) was -13.5%, the inhibition at 0.1 µM (PLK1; Lys1, read-out: Inhibition vs DMSO) was 4.9% and the inhibition at 0.1 µM (PLK1; Lys2, read-out: Inhibition vs DMSO) was 0.247%. The “Inhibition vs DMSO” value (JAK1 domain2; Activation Loop) was -23.7%, the “Inhibition vs DMSO” value (JAK1 domain2; Lys1) was -597.8% and the “Inhibition vs DMSO” value (SMG1; DTVTIHSVGGTITILPTKTKPK) was -27.8%. For the same molecule, the “Inhibition vs DMSO” value (SMG1; SYPYLFKGLEDLHLDER) was -27.3%, the inhibition at 0.1 µM (CaMK1a) was 1.3% and the inhibition at 0.1 µM (NEK7) was -26%. It also gave an inhibition at 0.1 µM (TAO2) of 10.8%, an inhibition at 0.1 µM (PIK3CD) of -4.6% and an inhibition at 0.1 µM (CDK10) of 33.7%. For the same molecule, the inhibition at 0.1 µM (SGK3) was -9.6%, the inhibition at 0.1 µM (MAP3K5) was 0.5% and the “Inhibition vs DMSO” value (JAK1 domain1) was 82.7%. The inhibition at 0.1 µM (p70S6K) was -32.8% and the inhibition at 0.1 µM (TLK1) was 16%.
